Experimental data: US10624897B2, “Chlorobenzene substituted azaaryl compounds” (TAIPEI MEDICAL UNIVERSITY, priority 2015, dated 2020)

Experiments:
[1] = test system: RT-112 cells; experiment: Cell cycle distribution by flow cytometry; type: cell-based; conditions: FIG. 3A; for accumulation of the sub-G1 phase (apoptotic cell death): 48 h to 72 h
[2] = test system: HT-29; experiment: MTT assay, cell viability; type: cell-based; conditions: Homo sapiens; HT-29, Colorectal, 72 hours; read-out: IC50 (μM, Mean ± SD)
Method: (§1) Cells were cultured in RPMI-1640 (RT-112, KMS-11, SNU-16, HT-29, HCT-116, NCI—H520, Hep3B, PLC/PRF/5, HL-60, MOLT-4) and DMEM (HepG2, MCF-7, MDA-MB-231) with 10% FBS (v/v) and Penicillin/Streptomycin (100 U/ml). FU-DDLS-1 cell line was maintained in DMEM:F12 medium with 10% FBS. LiSa-2 cell line was maintained in IMDM/RPMI-1640 in a 4:1 ratio supplemented with 10% FBS, 2 mmol/L L-glutamine, and 0.1 mg/mL gentamicin. Human umbilical vein endothelial cells (HUVECs) were grown to confluence on 1% collagen, and maintained in 90% Medium 199 with 25 U/ml heparin, 30 μg/ml endothelial cell growth supplement (ECGS) adjusted to contain 1.5 g/L sodium bicarbonate, 10% FBS and Penicillin/Streptomycin (100 U/ml) Cultures were maintained at 37° C. in a humidified atmosphere of 5% CO2/95% air.
(§2) Cells were seeded in 96-well plates (5,000 cells/well) and incubated overnight for attachment, and were then treated with indicated agents in 10% FBS-supplemented medium for 72 hours. The medium was replaced with MTT (0.5 mg/mL) at 37° C. for 1 hours. After removal of medium, the cells were lysed with 100 μL per well dimethyl sulfoxide (DMSO), and absorbance at 550 nm was measured with microplate reader. The relative cell viability (%) was expressed as a percentage relative to a DMSO control cells.

[3] = test system: RT-112; experiment: MTT assay, cell viability; type: cell-based; conditions: 72 hours
Method: as §1, §2

[4] = test system: LISA-2; experiment: MTT assay, cell viability; type: cell-based; conditions: LISA-2, Sarcoma, 72 hours; read-out: IC50 (μM, Mean ± SD)
Method: as §1, §2

[5] = test system: KMS-11; experiment: MTT assay, cell viability; type: cell-based; conditions: Homo sapiens; KMS-11, Myeloma, 72 hours; read-out: IC50 (μM, Mean ± SD)
Method: as §1, §2

[6] = test system: MCF-7; experiment: MTT assay, cell viability; type: cell-based; conditions: Homo sapiens, MCF7; MCF-7, Breast, 72 hours; read-out: IC50 (μM, Mean ± SD)
Method: as §1, §2

[7] = test system: FUDDLS; experiment: MTT assay, cell viability; type: cell-based; conditions: Sarcoma, 72 hours, read-out: IC50 (μM, Mean ± SD)
Method: as §1, §2

[8] = test system: HCT-116; experiment: MTT assay, cell viability; type: cell-based; conditions: Homo sapiens; HCT-116, Colorectal, 72 hours; read-out: IC50 (μM, Mean ± SD)
Method: as §1, §2

[9] = test system: HepG2; experiment: MTT assay, cell viability; type: cell-based; conditions: Homo sapiens; HepG2, Liver, 72 hours; read-out: IC50 (μM, Mean ± SD)
Method: as §1, §2

[10] = test system: PLC/PRF/5; experiment: MTT assay, cell viability; type: cell-based; conditions: 72 hours
Method: as §1, §2

[11] = test system: MDA-MB-231; experiment: MTT assay, cell viability; type: cell-based; conditions: Homo sapiens; MDA-MB-231, Breast, 72 hours; read-out: IC50 (μM, Mean ± SD)
Method: as §1, §2

[12] = test system: Hep3B; experiment: MTT assay, cell viability; type: cell-based; conditions: 72 hours
Method: as §1, §2

[13] = test system: RT-112 tumor xenografts; conditions: 5 mg/kg/wk, i.p., nude mice
Method: Eight-week-old female athymic nude mice were group-housed in the TMU Laboratory Animal Center (Taipei, Taiwan) under conditions of constant photoperiod (12 h light/12 h dark at 21-0023° C. and 60-85% humidity) with ad libitum access to sterilized food and water. […] Tumors were measured weekly using calipers. Tumor volume (mm3) was calculated from w2×½ (w=width, 1=length in mm of the tumor).

[14] = test system: SNU-16; experiment: MTT assay, cell viability; type: cell-based; conditions: 72 hours
Method: as §1, §2

Compound | Viability (% of control cells) SNU-16 (5 uM) Mean [14] | Viability (% of control cells) RT-112 (5 uM) Mean [3] | Viability (% of control cells) RT-112 (10 uM) Mean [3] | Viability (% of control cells) PLC5 (5 uM) Mean [10] | Viability (% of control cells) Hep3B (5 uM) Mean [12] | further results
CCN1CCN(c2ccc(Nc3cc(N(C)C(=O)Nc4c(Cl)c(OC)cc(OC)c4Cl)ncn3)cc2)CC1 [BGJ-398, 3-(2,6-Dichloro-3,5-dimethoxy-phenyl)-1-{6-[4-(4-ethylpiperazin-1-yl)-phenylamino]-pyrimidin-4-yl}-1-methyl-urea] | – | – | – | – | – | G0/G1 cell cycle arrest ([1]; 24 h): also observed; accumulation of the sub-G1 phase (apoptotic cell death) [1]: induced pronounced apoptosis; IC50 [2]: 4.77 ± 0.14 µM; IC50 ([3]; Homo sapiens, RT-112, Bladder, read-out: IC50 (μM, Mean ± SD)): 1.7 ± 0.05 µM; IC50 [4]: 6.13 ± 0.06 µM; IC50 [5]: 0.2 ± 0.05 µM; IC50 [6]: 5.07 ± 0.63 µM; IC50 [7]: 1.45 ± 0.17 µM; IC50 [8]: 3.98 ± 0.06 µM; IC50 [9]: 5.84 ± 0.25 µM; IC50 ([10]; Homo sapiens, PLC/PRF/5, Liver, read-out: IC50 (μM, Mean ± SD)): 2.94 ± 0.11 µM; IC50 [11]: 4.27 ± 0.83 µM; IC50 ([12]; Homo sapiens, Liver, read-out: IC50 (μM, Mean ± SD)): 0.72 ± 0.12 µM
N.N.[Cl][Pt][Cl] [Cisplatin, reference compound] | – | – | – | – | – | Tumor growth inhibition (%) [13]: 56.3%
CCN1CCN(c2ccc(Nc3cc(N(C)C(=O)Nc4c(Cl)c(OC)c(Cl)c(OC)c4Cl)ncn3)cc2)CC1 [MPT0L090, 1-(6-((4-(4-ethylpiperazin-1-yl)phenyl)amino)pyrimidin-4-yl)-1-methyl-3-(2,4,6-trichloro-3,5-dimethoxyphenyl)urea] | 27.5 % of control cells | 52.6 % of control cells | 12.7 % of control cells | 72.6 % of control cells | 47.1 % of control cells | –
CCN1CCN(c2ccc(Nc3cc(N(C)C(=O)Nc4c(Cl)c(OC)c(Cl)c(OC)c4Cl)nc(-c4ccccc4)n3)cc2)CC1 [MPT0L146, 1-(6-((4-(4-ethylpiperazin-1-yl)phenyl)amino)-2-phenylpyrimidin-4-yl)-1-methyl-3-(2,4,6-trichloro-3,5-dimethoxyphenyl)urea] | 83.4 % of control cells | 100.8 % of control cells | 29.7 % of control cells | 88.0 % of control cells | 94.3 % of control cells | –
COc1c(Cl)c(NC(=O)N(C)c2cc(-c3cccnc3)ncn2)c(Cl)c(OC)c1Cl [MPT0L147, 1-methyl-1-(6-(pyridin-3-yl)pyrimidin-4-yl)-3-(2,4,6-trichloro-3,5-dimethoxyphenyl)urea] | – | – | 85.0 % of control cells | – | – | –
COc1c(Cl)c(NC(=O)N(C)c2cc(-c3ccncc3)ncn2)c(Cl)c(OC)c1Cl [MPT0L148, 1-methyl-1-(6-(pyridin-4-yl)pyrimidin-4-yl)-3-(2,4,6-trichloro-3,5-dimethoxyphenyl)urea] | – | – | 89.3 % of control cells | – | – | –
COc1c(Cl)c(NC(=O)N(C)c2cc(-c3ccccc3)ncn2)c(Cl)c(OC)c1Cl [MPT0L149, 1-methyl-1-(6-phenylpyrimidin-4-yl)-3-(2,4,6-trichloro-3,5-dimethoxyphenyl)urea] | – | – | 82.3 % of control cells | – | – | –
COc1c(Cl)c(NC(=O)N(C)c2cc(-c3cccc(C#N)c3)ncn2)c(Cl)c(OC)c1Cl [MPT0L150, 1-(6-(3-cyanophenyl)pyrimidin-4-yl)-1-methyl-3-(2,4,6-trichloro-3,5-dimethoxyphenyl)urea] | – | – | 75.0 % of control cells | – | – | –
COc1c(Cl)c(NC(=O)N(C)c2cc(-c3cccc([N+](=O)[O-])c3)ncn2)c(Cl)c(OC)c1Cl [MPT0L151, 1-methyl-1-(6-(3-nitrophenyl)pyrimidin-4-yl)-3-(2,4,6-trichloro-3,5-dimethoxyphenyl)urea] | – | – | 63.8 % of control cells | – | – | –
COc1c(Cl)c(NC(=O)N(C)c2cc(-c3ccc(C#N)cc3)ncn2)c(Cl)c(OC)c1Cl [MPT0L152, 1-(6-(4-cyanophenyl)pyrimidin-4-yl)-1-methyl-3-(2,4,6-trichloro-3,5-dimethoxyphenyl)urea] | – | – | 55.3 % of control cells | – | – | –
COc1ccc(-c2cc(N(C)C(=O)Nc3c(Cl)c(OC)c(Cl)c(OC)c3Cl)ncn2)cc1 [MPT0L153, 1-(6-(4-methoxyphenyl)pyrimidin-4-yl)-1-methyl-3-(2,4,6-trichloro-3,5-dimethoxyphenyl)urea] | 76.2 % of control cells | 63.8 % of control cells | 43.0 % of control cells | 91.3 % of control cells | 93.6 % of control cells | –
COc1c(Cl)c(NC(=O)N(C)c2cc(-c3ccco3)ncn2)c(Cl)c(OC)c1Cl [MPT0L154, 1-(6-(furan-2-yl)pyrimidin-4-yl)-1-methyl-3-(2,4,6-trichloro-3,5-dimethoxyphenyl)urea] | – | – | 76.1 % of control cells | – | – | –
COc1c(Cl)c(NC(=O)N(C)c2cc(-c3ccc(F)cc3)ncn2)c(Cl)c(OC)c1Cl [MPT0L155, 1-(6-(4-fluorophenyl)pyrimidin-4-yl)-1-methyl-3-(2,4,6-trichloro-3,5-dimethoxyphenyl)urea] | 80.5 % of control cells | 92.6 % of control cells | 44.4 % of control cells | 55.3 % of control cells | 72.8 % of control cells | –
COc1c(Cl)c(NC(=O)N(C)c2cc(-c3ccc(Cl)cc3)ncn2)c(Cl)c(OC)c1Cl [MPT0L156, 1-(6-(4-chlorophenyl)pyrimidin-4-yl)-1-methyl-3-(2,4,6-trichloro-3,5-dimethoxyphenyl)urea] | 76.7 % of control cells | 98.3 % of control cells | 34.8 % of control cells | 44.4 % of control cells | 54.3 % of control cells | –
CCN1CCN(c2ccc(-c3cc(N(C)C(=O)Nc4c(Cl)c(OC)c(Cl)c(OC)c4Cl)ncn3)cc2)CC1 [MPT0L182, 1-(6-(4-(4-ethylpiperazin-1-yl)phenyl)pyrimidin-4-yl)-1-methyl-3-(2,4,6-trichloro-3,5-dimethoxyphenyl)urea] | 63.2 % of control cells | 95.6 % of control cells | 8.6 % of control cells | 78.3 % of control cells | 96.3 % of control cells | –
CCN1CCN(c2ccc(Nc3nc(Cl)nc(N(C)C(=O)Nc4c(Cl)c(OC)c(Cl)c(OC)c4Cl)n3)cc2)CC1 [MPT0L183, 1-(4-chloro-6-((4-(4-ethylpiperazin-1-yl)phenyl)amino)-1,3,5-triazin-2-yl)-1-methyl-3-(2,4,6-trichloro-3,5-dimethoxyphenyl)urea] | 28.2 % of control cells | 15.8 % of control cells | 3.4 % of control cells | 45.0 % of control cells | 43.3 % of control cells | –
CC(=O)O[C@H]1C(=O)[C@@]2(C)[C@H]([C@H](OC(=O)c3ccccc3)[C@]3(O)C[C@H](OC(=O)[C@H](O)[C@@H](NC(=O)c4ccccc4)c4ccccc4)C(C)=C1C3(C)C)[C@]1(OC(C)=O)CO[C@@H]1C[C@@H]2O [paclitaxel] | – | – | – | – | – | accumulation of the sub-G1 phase (apoptotic cell death) [1]: induced pronounced apoptosis
